Measurements: patent publication US9018383B2, “Acylamino-substituted cyclic carboxylic acid derivatives and their use as pharmaceuticals” (Sanofi, priority 2009, dated 2015)

What follows are molecules tested against human Edg-2 receptor (Homo sapiens, UniProt Q92633) (assay: Determination of Edg-2 receptor inhibition by FLIPR measurements (LPA-mediated calcium liberation)). Conditions: CHO cells overexpressing human Edg-2 receptor, LPA 100 nM, fluo-4 calcium fluorescence; read-out: Inhibitory concentrations IC50 for inhibition of the Edg-2 receptor.
Sequence of human Edg-2 receptor (Q92633 whole entry): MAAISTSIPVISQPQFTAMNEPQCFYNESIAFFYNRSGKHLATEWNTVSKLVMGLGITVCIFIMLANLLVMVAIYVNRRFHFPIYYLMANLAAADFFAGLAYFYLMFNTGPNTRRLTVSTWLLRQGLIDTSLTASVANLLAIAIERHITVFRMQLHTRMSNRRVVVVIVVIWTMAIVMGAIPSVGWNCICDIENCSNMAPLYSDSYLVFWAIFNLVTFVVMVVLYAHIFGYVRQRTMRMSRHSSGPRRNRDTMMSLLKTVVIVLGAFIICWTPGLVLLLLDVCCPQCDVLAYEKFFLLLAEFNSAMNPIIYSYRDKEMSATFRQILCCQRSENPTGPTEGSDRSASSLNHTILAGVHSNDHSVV
Assay type: cell-based
Description: A) Determination of Edg-2 Receptor Inhibition by Fluorescence Imaging Plate Reader (FLIPR) Measurements
The inhibition of the Edg-2 receptor (LPA1 receptor) by the compounds of the invention was quantified by the inhibitory effect on the LPA-mediated calcium liberation in a cell-based calcium fluorescence assay by use of Chinese hamster ovarian (CHO) cells in which the human Edg-2 receptor was stably overexpressed (Flp-In system, Invitrogen). […] Changes in intracellular calcium were determined by fluorescence measurement with the calcium-sensitive dye fluo-4 (Invitrogen) in a fluorescence imaging plate reader (FLIPR, […]).
CHO cells stably overexpressing the human Edg-2 receptor were seeded (40.000 per well) in black clear-bottomed poly-D-lysine-coated 96 well plates (Becton Dickinson, Biocoat cellware) approximately 18-24 h prior to the experiments. Cells were grown in an incubator at 37° C., 5% carbon dioxide and 95% humidity in cell culture media based on F-12 glutamax media (Gibco, #31765) supplemented with 1% (vol/vol) penicilline/streptomycine (PAN, #P06-07100), 10% (vol/vol) fetal calf serum (FCS, PAA, #A15-151) and hygromycin B (Invitrogen, #10687-010) 300 mg/l (final concentrations).
Prior to the FLIPR experiment, cells were loaded with fluo-4 acetoxymethyl ester (fluo-4 AM, Invitrogen, #F14202) for 60 min in an incubator at 37° C., 5% carbon dioxide and 95% humidity in dye-loading buffer consisting of Hanks' Balanced Salt Solution (HBSS, Invitrogen, #14065049) supplemented with fluo-4 AM at 2 μM (all data given for final concentration), Pluronic® F-127 0.05% (vol/vol) (Invitrogen, #P-3000 MP), HEPES 20 mM (Gibco, #15630), probenecid 2.5 mM (Sigma, #P-8761) and bovine serum albumin 0.05% (BSA, Sigma, #A-6003), adjusted to pH 7.5 with sodium hydroxide. During cell loading, fluo-4 AM is cleaved by intracellular esterase resulting in trapping of the dye fluo-4 within the cells. Loading was terminated by washing of the cells in a cell washer (Tecan Power washer) three times with the buffer specified afore but without fluo-4 AM and BSA. This latter buffer was also used as the buffer in the subsequent cell fluorescence measurements.
The dye-loaded and washed cells were pre-incubated for approximately 5 min with various concentrations of the test compound added as a solution in DMSO (0.3% vol/vol maximum final concentration of DMSO), or with DMSO in the respective concentration only (positive control). Subsequent addition of LPA (18:1, 1-oleoyl-sn-glycerol 3-phosphate; 100 nM final concentration) leads to liberation of intracellular calcium from internal stores resulting in a large transient increase of the fluo-4 fluorescence signal which was monitored over approximately 3 min. The percent inhibition caused by the test compound was determined from the maximum fluorescence response after LPA addition to cells pre-incubated with the compound as compared to the maximum fluorescence response after LPA addition to cells pre-incubated with DMSO only. All fluorescence values were corrected for the baseline fluorescence values obtained with cells which were pre-incubated with DMSO only and were not treated with LPA (baseline control). All measurements were performed in triplicate. From the percent inhibitions the inhibitory concentration IC50 was determined.

SMILES | IC50 [µM]
COc1ccc(C(=O)NC2(C(=O)O)CCCCCC2)cc1OCCc1cc(C)ccc1C [Example 18] | 0.1 to 1
O=C(NC1(C(=O)O)CCCCCC1)c1ccc(OCCO)c(OCCc2cccc(Cl)c2)c1 [Example 121, 1-[3-[2-(3-Chloro-phenyl)-ethoxy]-4-(2-hydroxy-ethoxy)-benzoylamino]-cycloheptane-carboxylic acid] | 0.1 to 1
COc1ccc(C(=O)N[C@]2(C(=O)O)CC[C@@H](C)CC2)cc1OCCc1cccc(C2COC2)c1 [Example 128, trans-1-{4-Methoxy-3-[2-(3-oxetan-3-yl-phenyl)-ethoxy]-benzoylamino}-4-methyl-cyclohexanecarboxylic acid] | 0.1 to 1
COc1ccc(C(=O)NC2(C(=O)O)CCCCCC2)cc1OCCc1c(C)n[nH]c1C [Example 4] | 0.1 to 1
Cc1cccc(CCOc2cc(C(=O)NC3(C(=O)O)CCCCCC3)ccc2C(C)O)c1 (stereo not shown) [Example 61, 1-[4-(1-Hydroxy-ethyl)-3-(2-m-tolyl-ethoxy)-benzoylamino]-cycloheptanecarboxylic acid] | 0.1 to 1
COc1ccc(-c2cc(C(=O)N[C@]3(C(=O)O)CC[C@@H](C)CC3)ccc2OC2CC(F)(F)C2)cc1Cl [Example 443, Trans-1-{[3′-Chloro-6-(3,3-difluoro-cyclobutoxy)-4′-methoxy-biphenyl-3-carbonyl]-amino}-4-methyl-cyclohexanecarboxylic acid] | 0.1 to 1
COc1ccc(C(=O)N[C@]2(C(=O)O)CC[C@H](C)CC2)cc1OCCc1ccccc1 [Example 406, cis-1-(4-Methoxy-3-phenethyloxy-benzoylamino)-4-methyl-cyclohexanecarboxylic acid] | 0.1 to 1
Cc1cccc(CCOc2ccc(C(=O)N[C@]3(C(=O)O)CC[C@@H](C)CC3)cc2C(O)C(F)(F)F)c1 (stereo partly drawn) [Example 442, (R,S)-trans-4-Methyl-1-[4-(2-m-tolyl-ethoxy)-3-(2,2,2-trifluoro-1-hydroxy-ethyl)-benzoylamino]-cyclohexanecarboxylic acid] | < 0.1
COc1ccc(-c2cc(C(=O)N[C@]3(C(=O)O)CC[C@@H](C)CC3)cc(F)c2OC)cc1Cl [Example 446, Trans-1-[(3′-Chloro-5-fluoro-6,4′-dimethoxy-biphenyl-3-carbonyl)-amino]-4-methyl-cyclohexanecarboxylic acid] | < 0.1
COc1ccc(C(=O)NC2(C(=O)O)CCC(OC)CC2)cc1OCCc1cccc(C)c1 (stereo not shown) [Example 374] | < 0.1
CC[C@H]1CC[C@@](NC(=O)c2ccc(OC)c(OCCc3cccc(CCO)c3)c2)(C(=O)O)CC1 [Example 112, trans-4-Ethyl-1-(3-{2-[3-(2-hydroxy-ethyl)-phenyl]-ethoxy}-4-methoxy-benzoylamino)-cyclohexanecarboxylic acid] | < 0.1
Cc1cccc(CCOc2cc(C(=O)NC3(C(=O)O)CCCCCC3)cc3c2OCO3)c1 [Example 132, 1-{[7-(2-m-Tolyl-ethoxy)-benzo[1,3]dioxole-5-carbonyl]-amino}-cycloheptanecarboxylic acid] | < 0.1
COc1ccc(C(=O)NC2(C(=O)O)C[C@H]3CC[C@]2(C)C3(C)C)cc1OCCc1cccc(C)c1 (stereo partly shown) [Example 39] | 1 to 30
COc1ccc(C(=O)N[C@]2(C(=O)O)CC[C@H](C)CC2)cc1OCCc1cccc(CCO)c1 [Example 109, cis-1-(3-{2-[3-(2-Hydroxy-ethyl)-phenyl]-ethoxy}-4-methoxy-benzoylamino)-4-methyl-cyclohexanecarboxylic acid] | < 0.1
COc1ccc(C(=O)N[C@]2(C(=O)O)CC[C@@H](C)CC2)cc1-c1c(F)cc(OC)c(Cl)c1F [Example 445, 1-[(3′-Chloro-2′,6′-difluoro-6,4′-dimethoxy-biphenyl-3-carbonyl)-amino]-4-methyl-cyclohexanecarboxylic acid] | < 0.1

Other lines, results leading:

IC50 [µM] | SMILES
< 0.1 | CC[C@H]1CC[C@](NC(=O)c2ccc(OC)c(OCCc3cccc(C4COC4)c3)c2)(C(=O)O)CC1 [Example 127, cis-4-Ethyl-1-{4-methoxy-3-[2-(3-oxetan-3-yl-phenyl)-ethoxy]-benzoylamino}-cyclohexanecarboxylic acid]
< 0.1 | CC[C@H]1CC[C@](NC(=O)c2ccc(OC)c(OCCc3ccccc3)c2)(C(=O)O)CC1 [Example 206]
< 0.1 | CC[C@H]1CC[C@](NC(=O)c2cnc(OCCO)c(-c3ccc(F)c(F)c3)c2)(C(=O)O)CC1 [Example 414]
< 0.1 | C=C1CCC(NC(=O)c2ccc(OC)c(OCCc3cccc(C)c3)c2)(C(=O)O)CC1 [Example 56, 1-[4-Methoxy-3-(2-m-tolyl-ethoxy)-benzoylamino]-4-methylene-cyclohexanecarboxylic acid]
< 0.1 | CC[C@H]1CC[C@](NC(=O)c2ccc(OC)c(-c3cccc(C(F)(F)F)c3)c2)(C(=O)O)CC1 [Example 331]
< 0.1 | COc1ccc(C(=O)NC2(C(=O)O)CCCCCC2)cc1OCCc1cc(Cl)ccc1Cl [Example 17]
< 0.1 | CC[C@H]1CC[C@](NC(=O)c2cnc(OCCO)c(-c3cccc(C(F)(F)F)c3)c2)(C(=O)O)CC1 [Example 413, 4-Ethyl-1-{[6-(2-hydroxy-ethoxy)-5-(3-trifluoromethyl-phenyl)-pyridine-3-carbonyl]-amino}-cyclohexanecarboxylic acid]
< 0.1 | COc1ccc(C(=O)N[C@]2(C(=O)O)CC[C@H](C(F)(F)F)CC2)cc1-c1cccc(C2COC2)c1 [Example 459, 1-[(6-Methoxy-3′-oxetan-3-yl-biphenyl-3-carbonyl)-amino]-4-trifluoromethyl-cyclohexanecarboxylic acid]
< 0.1 | CC[C@H]1CC[C@](NC(=O)c2cnc(OC)c(OCCc3cccc(C)c3)c2)(C(=O)O)CC1 [Example 396, cis-4-Ethyl-1-{[6-methoxy-5-(2-m-tolyl-ethoxy)-pyridine-3-carbonyl]-amino}-cyclohexanecarboxylic acid]
< 0.1 | COc1ccc(C(=O)NC2(C(=O)O)CCCCCC2)cc1OCC(F)(F)c1ccccc1 [Example 71, 1-[3-(2,2-Difluoro-2-phenyl-ethoxy)-4-methoxy-benzoylamino]-cycloheptanecarboxylic acid]
< 0.1 | CC[C@H]1CC[C@@](NC(=O)c2cnc(OC)c(OCCc3cccc(C)c3)c2)(C(=O)O)CC1 [Example 395, trans-4-Ethyl-1-{[6-methoxy-5-(2-m-tolyl-ethoxy)-pyridine-3-carbonyl]-amino}-cyclohexanecarboxylic acid]
< 0.1 | COc1ncc(C(=O)N[C@]2(C(=O)O)CC[C@H](C(F)(F)F)CC2)cc1-c1cccc(C(F)(F)F)c1 [Example 376]
< 0.1 | COc1ncc(C(=O)NC2(C(=O)O)CCCCCC2)cc1-c1cccc(Cl)c1Cl [Example 97]
< 0.1 | CC[C@H]1CC[C@](NC(=O)c2cc(F)c(OCCO)c(-c3ccc(OC)c(Cl)c3)c2)(C(=O)O)CC1 [Example 381]
< 0.1 | COc1ccc(C(=O)NC2(C(=O)O)CCCCCC2)cc1OCCc1ccccc1Cl [Example 364]
< 0.1 | CCc1ncc(C(=O)N[C@]2(C(=O)O)CC[C@H](CC)CC2)cc1OCCc1cccc(Cl)c1 [Example 437, cis-1-({5-[2-(3-Chloro-phenyl)-ethoxy]-6-ethyl-pyridine-3-carbonyl}-amino)-4-ethyl-cyclohexanecarboxylic acid]
